Experimental data: patent publication US20140017336A1, “CO-ADMINISTRATION OF ARSENIC COMPOUNDS AND ANTI-HERPES VIRUS ANTI-VIRALS” (priority 2011, published 2014)
“Also recorded” adds a separate entry of the source.

What was measured:
[1] = system: EBV Zta; experiment: Western blot of Zta in MUTU1 cells; type: cell-based, Epstein-Barr virus; conditions: 0, 10 nM, 100 nM ATO, day 3
[2] = system: EBV Zta mRNA; type: cell-based, Epstein-Barr virus; conditions: 72 hours, qRT-PCR
[3] = system: LCL<EBV1-13> cells; type: cell-based, human; conditions: 45 μM GCV, 1.0 nM ATO
[4] = system: EBV Zta mRNA; experiment: qRT-PCR of Zta mRNA in CNE1<EBV-BX1> cells; type: cell-based, Epstein-Barr virus
[5] = system: EBV BMRF1 mRNA; experiment: qRT-PCR of BMRF1 mRNA in CNE1<EBV-BX1> cells; type: cell-based, Epstein-Barr virus
[6] = system: EBV BMRF1 mRNA; type: cell-based, Epstein-Barr virus; conditions: within 72 hours, qRT-PCR
[7] = system: EBNA Cp mRNA; experiment: EBNA Cp mRNA expression in LCL<EBV1-13> cells; type: cell-based, Epstein-Barr virus; conditions: three days, 10 nM ATO
Protocol: FIGS. 8A-D. B-cells recently isolated from a patient were infected with EBV, allowed to grow out for several generations (only the EBV-infected cells would be able to grow out), and frozen until use. FIGS. 8A and B. FIGS. 8A and B graph the relative percent of viability of EBV-infected B-cells as just described (LCL<EBV1-13> cells) thawed and grown in one of: media alone (“control”), media and 45 μM ganciclovir (GCV), media and […] arsenic trioxide (ATO), or media and a combination of these concentrations of GCV and ATO. The bars show the relative viability of cells after 2 days of this treatment (“2 D,” FIG. 8A), and at three days (“3 D,” FIG. 8B). FIG. 8C. Epstein-Barr nuclear antigen (“EBNA”) driven by the C promoter (“Cp”) is transcribed only during the latent phase of the virus. FIG. 8C graphs the relative expression of EBNA Cp mRNA of LCL<EBV1-13> cells grown three days (“3 D”) in media alone (“control”), media and 45 μM ganciclovir (GCV), media and 10 nM arsenic trioxide (ATO), or media and a combination of these concentrations of GCV and ATO. […] FIG. 8D. FIG. 8D graphs the relative transcription of the viral immediate early protein Zta mRNA of LCL<EBV1-13> cells grown three days (“3 D”) in media alone (“control”), media and 45 μM ganciclovir (GCV), media and 10 nM arsenic trioxide (ATO), or media and a combination of these concentrations of GCV and ATO. […]

[8] = 4 days, 1 nM ATO and/or 40 μM GCV

For arsenic trioxide [ATO], which “Zta expression (Western blot), EBV positive MUTU cells” value [1] is on record?
The value was “markedly enhanced reactivation of the EBV lytic cycle; also recorded: show Zta expression”.

What about the “ATO concentration inducing an increase in Zta mRNA” value [2] of the same substance?
The value was no less than 12.5 nM.

And the “viable cells after a third day of treatment compared with two days” value [3]?
The value was “barely changed”.

And the “ATO dose inducing upregulation of ZTA mRNA” value ([4]; 48 hours, 'as low as')?
Its value is 1.25 nM.

What about the “Zta mRNA expression compared to control” value [4, 8] of the same substance?
The value was “increased”.

And the “ATO dose inducing upregulation of BMRF1 mRNA” value ([5]; 48 hours, 'as low as', to a lesser extent than ZTA)?
Its value is 1.25 nM.

And the “BMRF1 mRNA expression compared to control” value [5, 8]?
The value was “increased”.

And the “ATO dose inducing BMRF1 mRNA” value [6]?
Its value is no less than 12.5 nM.

And the “relative expression of EBNA Cp mRNA” value [7]?
The value was “drops dramatically”.
